From PMC7025792 (ACS infectious diseases, 2019)
Values after ≈ are worked out from the molar mass of the structure shown. Values joined by “and” are separate entries in the source; they are usually repeats but may differ in a detail not shown here. Equal entries are not always repeated.

What was measured:
[1] = target: DfrA (Staphylococcus aureus, UniProt P13955); assay: biochemical; assay type: biochemical
[2] = target: T1, DfrG (Staphylococcus aureus, UniProt Q4H3Y3); settings: read-out: KM, DHF, NADPH saturation 100 μM
[3] = target: human DHFR isoform (HuDHFR) (Homo sapiens, UniProt P00374); settings: read-out: KM, DHF, NADPH saturation 100 μM
[4] = target: DfrB (Staphylococcus aureus, UniProt P0A017); assay type: biochemical; settings: read-out: KM, DHF, NADPH saturation 100 μM
[5] = target: T2, DfrK (Staphylococcus aureus, UniProt C7C2U7); settings: read-out: KM, DHF, NADPH saturation 100 μM
[6] = target: T1, DfrG; assay: biochemical
[7] = system: UCH115 (dfrA); assay: MIC, broth dilution, dfrA clinical isolate; assay type: cell-based; settings: Staphylococcus aureus, 18 h, read-out: Minimum Inhibitory Concentrations
[8] = system: UCH121 (dfrG); assay: MIC, broth dilution, dfrG clinical isolate; assay type: cell-based, Staphylococcus aureus; settings: for MIC: Staphylococcus aureus, 18 h, read-out: Minimum Inhibitory Concentrations; for Minimum Inhibitory Concentrations: UCH121 (dfrG), 18 hour, 37°C, isosensitest broth
[9] = system: HH1184 (dfrK); assay: MIC, broth dilution, dfrK clinical isolate; assay type: cell-based, Staphylococcus aureus; settings: for Minimum Inhibitory Concentrations: HH1184 (dfrK), 18 hour, 37°C, isosensitest broth; for MIC: Staphylococcus aureus, 18 h, read-out: Minimum Inhibitory Concentrations
[10] = target: T2, DfrK; assay: biochemical; settings: Enzymatic inhibition, Table 4, average of three experiments ±SD
[11] = system: HepG2; assay: Mammalian cytotoxicity, Alamar Blue; assay type: cell-based; settings: Homo sapiens, HepG2, 4 h, read-out: Mammalian Toxicity IC50
[12] = system: MCF10A; assay: Mammalian cytotoxicity, Alamar Blue; assay type: cell-based; settings: Homo sapiens, MCF-10A, 4 h, read-out: Mammalian Toxicity IC50

Sequence of DfrA (P13955 whole entry): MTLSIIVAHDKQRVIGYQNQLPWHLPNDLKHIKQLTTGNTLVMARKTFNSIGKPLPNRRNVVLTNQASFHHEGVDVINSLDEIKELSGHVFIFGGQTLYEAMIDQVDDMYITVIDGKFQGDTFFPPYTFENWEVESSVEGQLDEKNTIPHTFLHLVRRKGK
Sequence of DfrB (P0A017 whole entry): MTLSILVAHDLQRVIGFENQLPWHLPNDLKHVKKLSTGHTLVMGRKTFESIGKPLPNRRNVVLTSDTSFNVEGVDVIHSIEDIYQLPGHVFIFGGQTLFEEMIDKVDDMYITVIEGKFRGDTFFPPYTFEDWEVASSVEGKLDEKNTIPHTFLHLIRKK
Sequence of human DHFR isoform (HuDHFR) (P00374 whole entry, canonical isoform): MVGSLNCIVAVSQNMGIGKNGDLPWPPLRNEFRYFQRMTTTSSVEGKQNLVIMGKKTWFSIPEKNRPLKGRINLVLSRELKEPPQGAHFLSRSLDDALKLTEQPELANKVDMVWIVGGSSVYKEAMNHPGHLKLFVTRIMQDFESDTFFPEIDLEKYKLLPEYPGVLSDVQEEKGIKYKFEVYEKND

Compound | Km ([1]; read-out: KM, DHF, DfrA, NADPH saturation 100 μM) [µM] | Km [2] | Km [3] [µM] | Km [4] | Km [5] [µM] | Ki [6] [nM] | Ki [1] [nM] | MIC [7] [µg/mL] | MIC [8] [µg/mL] | Minimum Inhibitory Concentrations [8] [µg/mL] | Minimum Inhibitory Concentrations [9] [µg/mL] | MIC [9] [µg/mL] | Ki [10] [nM] | IC50 [11] [µg/mL] | IC50 [12] [µg/mL]
Nc1nc(=O)c2c([nH]1)NCC(CNc1ccc(C(=O)N[C@@H](CCC(=O)O)C(=O)O)cc1)=N2 [DHF, dihydrofolate] | 5.76 | 8.87 µM and 8.9 µM | 10.5 | 13.3 µM and 13.4 µM | 11 |  |  |  |  |  |  |  |  |  | 
COc1cc(Cc2cnc(N)nc2N)c2c(c1OC)OC(C1CC1)C=C2 (stereo not shown) [Iclaprim, iclaprim] |  |  |  |  |  | 1350 ± 10 | 90 ± 3 | 64 (≈ 181 µM) | > 250 | >250 | >250 | > 250 |  |  | 
CN(Cc1cnc2nc(N)nc(N)c2n1)c1ccc(C(=O)N[C@@H](CCC(=O)O)C(=O)O)cc1 [Methotrexate] |  |  |  |  |  | 1.8 ± 0.1 | 0.38 ± 0.04 | > 250 | > 250 |  |  | > 250 | 2.5 ± 0.1 | > 200 | > 200
COc1cc(Cc2cnc(N)nc2N)cc(OC)c1OC [Trimethoprim, trimethoprim] |  |  |  |  |  |  |  | 250 (≈ 861 µM) | > 1000 | >1000 | >1000 | > 1000 |  |  | 
